In general, melting point refers to the temperature, or range, at which the solid turns liquid. As a reminder, the IC50 is the concentration that gives 50% inhibition. Higher therefore signals weaker potency.

In brackets after ≈: the same amount, converted by molar mass. Like-named read-outs stand apart in the source and are kept apart here.

Here are results for 21 compounds from paper PMC6268315, “Investigating the Spectrum of Biological Activity of Substituted Quinoline-2-Carboxamides and Their Isosteres ^†” (Molecules, 2012).

In series [1] the test system is M. avium complex CIT19/06. Put plainly: In vitro antimycobacterial evaluation (alamarBlue). It is filed as cell-based. The conditions noted are these: Mycobacterium avium, 120 h, read-out: MIC/IC90 M. avium complex. A general note: The colour change of resazurin is a common sign of viable cells or microbes.
In series [2] the test system is M. avium paratuberculosis ATCC19698. Put plainly: In vitro antimycobacterial evaluation (alamarBlue). The conditions noted are these: Mycobacterium avium, 264 h, read-out: MIC/IC90 M.avium paratuberculosis. It is filed as cell-based.
A further series relates to M. kansasii CIT11/06. Put plainly: In vitro antimycobacterial evaluation (alamarBlue). It is filed as cell-based. The conditions noted are these: Mycobacterium kansasii, read-out: MIC/IC90 M. kansasii.
Series [3] has as its system photosynthetic electron transport (PET) in spinach chloroplasts. Put plainly: Inhibition of photosynthetic electron transport (PET) in spinach chloroplasts. It is filed as biochemical, Spinacia oleracea L. The conditions noted are these: photoreduction of DCPIP, pH 7.2. Here is the method:
Chloroplasts were prepared from spinach (Spinacia oleracea L.) according to Masarovicova and Kralova. The inhibition of photosynthetic electron transport (PET) in spinach chloroplasts was determined spectrophotometrically (Genesys 6, Thermo Scientific, USA), using an artificial electron acceptor 2,6-dichlorophenol-indophenol (DCIPP) according to Kralova et al., and the rate of photosynthetic electron transport was monitored as a photoreduction of DCPIP. The measurements were carried out in phosphate buffer (0.02 mol/L, pH 7.2) containing sucrose (0.4 mol/L), MgCl2 (0.005 mol/L) and NaCl (0.015 mol/L). The chlorophyll content was 30 mg/L in these experiments and the samples were irradiated (~100 W/m^2 with 10 cm distance) with a halogen lamp (250 W) using a 4 cm water filter to prevent warming of the samples (suspension temperature 22 °C). The studied compounds were dissolved in DMSO due to their limited water solubility. […] The inhibitory efficiency of the studied compounds was expressed by IC50 values, i.e., by molar concentration of the compounds causing 50% decrease in the oxygen evolution rate relative to the untreated control.

Series [4] has as its system M. tuberculosis and other atypical mycobacterial strains. Put plainly: In vitro antimycobacterial screening, results in words. The format is cell-based, Mycobacterium sp. The conditions noted are these: low solubility, precipitation in test media.
In series [5] the test system is human monocytic leukemia THP-1 cells. The conditions noted are these: for lethal effect on THP-1 cells at the highest dose achieved in the medium: 100 µmol/L; for LD50: human, 24 h.
Series [6] has the same test system. Conditions: assessed in this line formerly; cited from earlier work.

On to `CC(C)NC(=O)c1ccc2ccccc2n1` [Compound 1, N-Isopropylquinoline-2-carboxamide], for which the melting point lay within 75 to 76 °C. The MIC in series [1] (CIT19/06, 5 days) worked out at 583 µM (≈ 125 µg/mL). Also, in series [2] (ATCC19698, 11 days), the MIC is 1170 µM (≈ 250 µg/mL). Also, in the series with M. kansasii CIT11/06 (120 h, CIT11/06, 5 days), the MIC came to 1170 µM (≈ 250 µg/mL).
`NC(=O)c1cnccn1` [PZA, pyrazinamide, reference compound]: the MIC in series [1] was greater than 812 µM; in series [2], greater than 812 µM; in the series with M. kansasii CIT11/06 (CIT11/06, 120 h) it was greater than 812 µM.
On to `O=C(NC1CCCCCCC1)c1ccc2ccccc2n1` [Compound 8, N-Cyclooctylquinoline-2-carboxamide], for which the melting point lay within 72 to 73 °C. The compound further had an IC50 in series [3] of 415 µM. Further, in series [4], the “antimycobacterial activity” value is given as “no activity”.
Regarding `COc1ccccc1NC(=O)c1ccc2ccccc2c1` [Compound 32a, N-(2-Methoxyphenyl)-2-naphthamide], the melting point stood at 82 °C. In addition, the MIC in series [1] (CIT19/06, 5 days) is 451 µM (≈ 125 µg/mL). Besides, in series [3], half-maximal inhibition (IC50) required 763 µM. The MIC in series [2] (ATCC19698, 11 days) came out at 216 µM (≈ 59.9 µg/mL). In addition, the MIC with M. kansasii CIT11/06 (120 h, CIT11/06, 5 days) turned out to be 451 µM (≈ 125 µg/mL).
`CCCCCCCCCCCCNC(=O)c1ccc2ccccc2n1` [Compound 2, N-Dodecylquinoline-2-carboxamide]: the MIC in series [1] was 367 µM (≈ 125 µg/mL); in series [2] (ATCC19698, 11 days), 734 µM (≈ 250 µg/mL); in the series with M. kansasii CIT11/06 (120 h, CIT11/06, 5 days) it was 734 µM (≈ 250 µg/mL). Also, in series [3], the IC50 turned out to be 573 µM.
In turn, `Cc1cccc(NC(=O)c2ccc3ccccc3n2)c1` [Compound 14b, N-(3-Methylphenyl)quinoline-2-carboxamide] returned a melting point of 82 to 83 °C. In addition, the MIC in series [1] stood at 469 µM (≈ 123 µg/mL). Moreover, the IC50 in series [3] was 101 µM. Further, in series [2] (ATCC19698, 11 days), the MIC is 939 µM (≈ 246 µg/mL). In addition, the MIC in the series on M. kansasii CIT11/06 (CIT11/06, 120 h) was determined as 469 µM (≈ 123 µg/mL).
Regarding `O=C(c1ccc2ccccc2c1)N1CCCC1` [Compound 22, 1-(2-Naphthoyl)pyrrolidine], the MIC is 554 µM (≈ 125 µg/mL) in series [1]; 111 µM (≈ 25 µg/mL) in series [2] (ATCC19698, 11 days); 111 µM (≈ 25 µg/mL) in the series on M. kansasii CIT11/06 (120 h, CIT11/06, 5 days). Also, in series [5], the “lethal effect on THP-1 cells at the highest dose achieved in the medium” value (shortened to “lethal effect on THP-1 cells”) is “did not lead to the 100% lethal effect”. This compound returned an LD50 in series [5] greater than 100 µmol/L.
With `O=C(NCCc1ccccc1)c1ccc2ccccc2n1` [Compound 11, N-(2-Phenylethyl)quinoline-2-carboxamide], the MIC in series [1] (CIT19/06, 5 days) was found to be 452 µM (≈ 125 µg/mL); in series [2] (ATCC19698, 11 days) it was 905 µM (≈ 250 µg/mL); in the series on M. kansasii CIT11/06 (120 h, CIT11/06, 5 days), 452 µM (≈ 125 µg/mL). In series [5], the “lethal effect on THP-1 cells” value is on record as “did not lead to the 100% lethal effect”. Moreover, the LD50 in series [5] was greater than 100 µmol/L.
In the case of `O=C(Nc1cccc(Br)c1)c1ccc2ccccc2n1` [Compound 17b, N-(3-Bromophenyl)quinoline-2-carboxamide], the melting point is 139 to 140 °C. The IC50 in series [3] was 409 µM.
For the compound `O=C(NC1CCCC1)c1ccc2ccccc2n1` [Compound 5, N-Cyclopentylquinoline-2-carboxamide], the melting point lay within 63 to 64 °C. Moreover, in series [1], the MIC was determined as 491 µM (≈ 118 µg/mL). In addition, in series [3], half-maximal inhibition (IC50) was put at 762 µM. Further, the MIC in series [2] was determined as 491 µM (≈ 118 µg/mL). The MIC in the series on M. kansasii CIT11/06 (CIT11/06, 120 h) is 491 µM (≈ 118 µg/mL).
On to `CC[C@@]1(O)C(=O)OCc2c1cc1n(c2=O)Cc2cc3ccccc3nc2-1` [camptothecin], for which, in series [6], the LD50 was 0.16 ± 0.07 µmol/L.
With `O=C(c1ccc2ccccc2n1)N1CCCC1` [Compound 3, 2-(Pyrrolidin-1-ylcarbonyl)quinoline], the MIC in series [1] came to 552 µM (≈ 125 µg/mL); in series [2] (ATCC19698, 11 days), 111 µM (≈ 25.1 µg/mL); with M. kansasii CIT11/06 (120 h, CIT11/06, 5 days) it was 111 µM (≈ 25.1 µg/mL). In addition, it took 1600 µM to reach half-maximal inhibition in series [3] (IC50). Also, the “lethal effect on THP-1 cells” value in series [5] is “did not lead to the 100% lethal effect”. The LD50 in series [5] is reported as greater than 100 µmol/L.
Consider `NNC(=O)c1ccncc1` [INH, isoniazid, reference compound], for which the MIC in series [1] (CIT19/06, 5 days) is less than 72.9 µM; in series [2], greater than 729 µM; in the series with M. kansasii CIT11/06 (120 h, CIT11/06, 5 days) it was less than 72.9 µM.
As for `O=C(Nc1ccccc1F)c1ccc2ccccc2n1` [Compound 15a, N-(2-Fluorophenyl)quinoline-2-carboxamide], the melting point was in the range of 116 to 117 °C. For the same compound, the IC50 in series [3] is 98.1 µM.
The like results for `O=C(Nc1ccc(F)cc1)c1ccc2ccccc2n1` [Compound 15c, N-(4-Fluorophenyl)quinoline-2-carboxamide] were, in that order, 115 to 116 °C and 75.3 µM.
With `O=C(Nc1ccccc1)c1ccc2ccccc2n1` [Compound 9, N-Phenylquinoline-2-carboxamide], the IC50 in series [3] was determined as 85.1 µM. The “antimycobacterial activity” value in series [4] is “non-active”.
`O=C(Nc1cccc(Cl)c1)c1ccc2ccccc2c1` [Compound 35b, N-(3-Chlorophenyl)-2-naphthamide] came in with a melting point of 180 °C. Also, half-maximal inhibition in series [3] (IC50) required 81 µM.
With `O=C(NC1CCCCC1)c1ccc2ccccc2n1` [Compound 6, N-Cyclohexylquinoline-2-carboxamide], the melting point is 98 to 99 °C. For the same compound, the MIC in series [1] (CIT19/06, 5 days) is 520 µM (≈ 132 µg/mL). For the same compound, half-maximal inhibition in series [3] (IC50) required 1040 µM. Also, the MIC in series [2] (ATCC19698, 11 days) was determined as 520 µM (≈ 132 µg/mL). The MIC in the series with M. kansasii CIT11/06 (120 h, CIT11/06, 5 days) worked out at 520 µM (≈ 132 µg/mL).
On to `Cc1ccccc1NC(=O)c1ccc2ccccc2n1` [Compound 14a, N-(2-Methylphenyl)quinoline-2-carboxamide], for which the melting point was 100 to 101 °C. In series [3], this compound had an IC50 of 143 µM.
`O=C(NC1CCCCCC1)c1ccc2ccccc2n1` [Compound 7, N-Cycloheptylquinoline-2-carboxamide]: the MIC was found to be 466 µM (≈ 125 µg/mL) in series [1] (CIT19/06, 5 days); 223 µM (≈ 59.8 µg/mL) in series [2] (ATCC19698, 11 days); 466 µM (≈ 125 µg/mL) in the series on M. kansasii CIT11/06 (120 h, CIT11/06, 5 days). The compound also yielded an LD50 in series [5] of 62 ± 4.5 µmol/L.
In turn, `O=C(NCc1ccccc1)c1ccc2ccccc2c1` [Compound 29, N-Benzyl-2-naphthamide] registered a melting point of 138 to 139 °C. The compound also returned an IC50 in series [3] of 7.5 µM.
